Tests used:
[1] = target: T1, PleDSM (Sinorhizobium meliloti, UniProt Q92QM5); assay: c-di-GMP synthesis, C18-HPLC; type: biochemical; details: 100 µM GTP, 40 µM protein, 10 mM MgCl2, pH 7.8, 25 °C
T1 construct: gene pleD; His-tagged, pET28a-pleDSM, E. coli BL21(DE3), Ni-NTA and SEC
T1 sequence (Q92QM5 1-455): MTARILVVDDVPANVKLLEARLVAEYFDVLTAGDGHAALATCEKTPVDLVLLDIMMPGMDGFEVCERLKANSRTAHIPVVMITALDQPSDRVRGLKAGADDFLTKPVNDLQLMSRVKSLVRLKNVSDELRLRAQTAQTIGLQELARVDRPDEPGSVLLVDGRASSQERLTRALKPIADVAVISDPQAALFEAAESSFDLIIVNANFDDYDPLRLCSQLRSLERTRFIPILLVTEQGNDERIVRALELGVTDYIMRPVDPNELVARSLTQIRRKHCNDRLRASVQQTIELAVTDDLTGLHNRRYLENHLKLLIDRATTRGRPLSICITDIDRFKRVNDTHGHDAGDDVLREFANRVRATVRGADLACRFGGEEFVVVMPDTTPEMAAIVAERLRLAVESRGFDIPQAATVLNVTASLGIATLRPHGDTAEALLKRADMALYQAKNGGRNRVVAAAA

[2] = target: T2, WspR (Pseudomonas aeruginosa, UniProt Q9HXT9); assay: c-di-GMP synthesis, C18-HPLC; type: biochemical; details: 100 µM GTP, 40 µM protein, 10 mM MgCl2, pH 7.8, 25 °C
T2 construct: His-tagged, pET28a-wspR, E. coli BL21(DE3), Ni-NTA and SEC

[3] = target: T3, PleD (PleDCC) (Caulobacter vibrioides, UniProt B8GZM2); assay: ITC; type: binding
T3 construct: full-length D1-D2-DGC, His-tagged, pET11b-pleD, E. coli BL21(DE3), Ni-NTA and SEC; unphosphorylated
T3 sequence (B8GZM2 1-454): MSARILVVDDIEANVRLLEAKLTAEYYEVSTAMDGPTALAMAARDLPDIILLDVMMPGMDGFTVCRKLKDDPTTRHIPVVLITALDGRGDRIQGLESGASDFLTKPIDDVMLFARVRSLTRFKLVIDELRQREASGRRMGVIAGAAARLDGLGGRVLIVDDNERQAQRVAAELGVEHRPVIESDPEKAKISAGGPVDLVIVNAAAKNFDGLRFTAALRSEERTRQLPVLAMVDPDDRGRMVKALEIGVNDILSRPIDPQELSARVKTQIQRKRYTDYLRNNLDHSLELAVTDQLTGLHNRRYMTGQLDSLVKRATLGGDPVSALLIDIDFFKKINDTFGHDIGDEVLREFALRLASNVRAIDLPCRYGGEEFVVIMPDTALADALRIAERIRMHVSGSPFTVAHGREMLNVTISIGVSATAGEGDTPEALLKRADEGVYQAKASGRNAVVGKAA

[4] = target: T3, PleD (PleDCC); assay: crystal structure ([…] and […] Å); type: binding; details: I-site (inhibitory site), two molecules per monomer; with ppGpp (9G85) or pppGpp (9G86)
[5] = target: T4, PleDAT (Agrobacterium fabrum, UniProt A9CJ98); assay: nanoDSF; type: binding; details: 100 µM protein, 1 mM ligand, pH 7.8, 5 mM MgCl2
T4 construct: gene pleD; His-tagged, pET28a-pleDAT, E. coli BL21(DE3), Ni-NTA and SEC

[6] = target: T4, PleDAT; assay: c-di-GMP synthesis, C18-HPLC; type: biochemical; details: 100 µM GTP, 40 µM protein, 10 mM MgCl2, pH 7.8, 25 °C, 2 h
[7] = target: T1, PleDSM; assay: c-di-GMP synthesis, C18-HPLC; type: biochemical; details: 100 µM GTP, 40 µM protein, 10 mM MgCl2, pH 7.8, 25 °C, 2 h
[8] = target: T3, PleD (PleDCC); assay: c-di-GMP synthesis, C18-HPLC; type: biochemical
[9] = target: T2, WspR; assay: c-di-GMP synthesis, C18-HPLC; type: biochemical

T4 sequence (A9CJ98 entry or part of it): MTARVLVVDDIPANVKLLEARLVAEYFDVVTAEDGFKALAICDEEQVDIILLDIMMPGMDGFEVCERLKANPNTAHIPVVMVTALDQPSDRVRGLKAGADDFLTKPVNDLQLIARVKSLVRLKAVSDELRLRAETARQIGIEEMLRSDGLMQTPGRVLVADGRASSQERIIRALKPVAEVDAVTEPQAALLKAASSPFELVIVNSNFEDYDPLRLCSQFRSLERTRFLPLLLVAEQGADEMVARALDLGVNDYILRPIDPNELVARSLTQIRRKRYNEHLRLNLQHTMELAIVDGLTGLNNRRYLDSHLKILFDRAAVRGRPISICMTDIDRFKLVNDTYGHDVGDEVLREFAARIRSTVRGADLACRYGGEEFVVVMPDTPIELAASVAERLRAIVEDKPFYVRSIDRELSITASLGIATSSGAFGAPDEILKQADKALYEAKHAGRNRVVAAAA
T2 sequence (Q9HXT9 entry or part of it): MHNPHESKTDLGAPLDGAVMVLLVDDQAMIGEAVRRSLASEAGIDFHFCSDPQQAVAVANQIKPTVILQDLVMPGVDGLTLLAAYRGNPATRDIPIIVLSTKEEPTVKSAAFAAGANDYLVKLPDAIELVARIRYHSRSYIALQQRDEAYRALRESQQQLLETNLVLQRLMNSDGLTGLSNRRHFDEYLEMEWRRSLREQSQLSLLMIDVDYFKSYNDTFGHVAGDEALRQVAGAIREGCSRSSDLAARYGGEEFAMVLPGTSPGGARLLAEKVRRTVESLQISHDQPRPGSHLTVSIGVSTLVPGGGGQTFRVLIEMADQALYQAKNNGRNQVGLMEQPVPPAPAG

Compound	Kd [3] [µM]	ΔTm [5]	% inhibition at 500 μM [6]	% inhibition at 500 μM [7]	inhibition at 500 µM [8] [%]	other results
Nc1nc2c(ncn2[C@@H]2O[C@H](COP(=O)(O)OP(=O)(O)OP(=O)(O)O)[C@@H](O)[C@H]2O)c(=O)[nH]1 [GTP]	–	–	–	–	–	c-di-GMP synthesis, C18-HPLC [1]: c-di-GMP production by different diguanylate cyclases (DGCs); c-di-GMP synthesis, C18-HPLC [2]: c-di-GMP production by different diguanylate cyclases (DGCs)
Nc1nc2c(ncn2[C@@H]2O[C@H](COP(=O)(O)CP(=O)(O)OP(=O)(O)O)[C@@H](O)[C@H]2O)c(=O)[nH]1 [GpCpp]	6.01 ± 1.52	–	–	–	–	–
Nc1nc2c(ncn2[C@@H]2O[C@@H]3COP(=O)(O)O[C@H]4[C@@H](O)[C@H](n5cnc6c(=O)[nH]c(N)nc65)O[C@@H]4COP(=O)(O)O[C@H]3[C@H]2O)c(=O)[nH]1 [c-di-GMP]	–	–	–	–	–	crystal structure (2.9 and 3 Å) [4]: each monomer of the (p)ppGpp-PleD structures is bound by two cyclic di-GMP molecules
Nc1nc2c(ncn2[C@@H]2O[C@H](COP(=O)(O)OP(=O)(O)O)[C@@H](OP(=O)(O)OP(=O)(O)O)[C@H]2O)c(=O)[nH]1 [ppGpp]	45.4 ± 22.3	NanoDSF assays further confirmed PleDAT binding to (p)ppGpp	ppGpp and pppGpp strongly inhibited c-di-GMP production	ppGpp and pppGpp strongly inhibited c-di-GMP production	> 50	–
Nc1nc2c(ncn2[C@@H]2O[C@H](COP(=O)(O)OP(=O)(O)OP(=O)(O)O)[C@@H](OP(=O)(O)OP(=O)(O)O)[C@H]2O)c(=O)[nH]1 [pppGpp]	9.31 ± 1.16	NanoDSF assays further confirmed PleDAT binding to (p)ppGpp	ppGpp and pppGpp strongly inhibited c-di-GMP production, with pppGpp showing greater potency	ppGpp and pppGpp strongly inhibited c-di-GMP production, with pppGpp showing greater potency	> 90	inhibition at 500 µM [9]: > 50%

— publication doi:10.1101/2025.08.22.671821v1, “Cross-regulation of (p)ppGpp and c-di-GMP pathways controls a cell-cycle transition” (biorxiv, 2025)
